Measured values: PubChem BioAssay (NCI)
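Where inhibition never reached the appropriate level, the endpoint shown equals the highest concentration tested. Otherwise, values were interpolated linearly from a five-concentration, 48-hour dose response in 96-well plates. TGI marks complete inhibition of growth.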

Experiments:
Assay in all cases: NCI tumour cell line growth inhibition, 48 h
786-0 renal = test system: 786-0 renal
A549 NSCLC = test system: A549 NSCLC
ACHN renal = test system: ACHN renal
BT-549 breast = test system: BT-549 breast
CAKI-1 renal = test system: CAKI-1 renal
CCRF-CEM leukemia = test system: CCRF-CEM leukemia
COLO 205 colon = test system: COLO 205 colon
DU-145 prostate = test system: DU-145 prostate
EKVX NSCLC = test system: EKVX NSCLC
HCT-116 colon = test system: HCT-116 colon
HCT-15 colon = test system: HCT-15 colon
HL-60(TB) leukemia = test system: HL-60(TB) leukemia
HOP-92 NSCLC = test system: HOP-92 NSCLC
HS 578T breast = test system: HS 578T breast
HT29 colon = test system: HT29 colon
IGROV1 ovarian = test system: IGROV1 ovarian
KM12 colon = test system: KM12 colon
M14 melanoma = test system: M14 melanoma
MALME-3M melanoma = test system: MALME-3M melanoma
MCF7 breast = test system: MCF7 breast
MDA-MB-231 breast = test system: MDA-MB-231 breast
MDA-MB-435 = test system: MDA-MB-435
MDA-N = test system: MDA-N
NCI-H226 lung = test system: NCI-H226 lung
NCI-H23 lung = test system: NCI-H23 lung
NCI-H460 lung = test system: NCI-H460 lung
NCI-H522 lung = test system: NCI-H522 lung
NCI/ADR-RES ovarian = test system: NCI/ADR-RES ovarian
OVCAR-5 ovarian = test system: OVCAR-5 ovarian
OVCAR-8 ovarian = test system: OVCAR-8 ovarian
PC-3 prostate = test system: PC-3 prostate
RPMI-8226 leukemia = test system: RPMI-8226 leukemia
RXF 393 renal = test system: RXF 393 renal
SF-268 CNS = test system: SF-268 CNS
SF-295 CNS = test system: SF-295 CNS
SF-539 CNS = test system: SF-539 CNS
SK-MEL-2 melanoma = test system: SK-MEL-2 melanoma
SK-MEL-5 melanoma = test system: SK-MEL-5 melanoma
SK-OV-3 ovarian = test system: SK-OV-3 ovarian
SN12C renal = test system: SN12C renal
SNB-19 CNS = test system: SNB-19 CNS
SNB-75 CNS = test system: SNB-75 CNS
SW-620 colon = test system: SW-620 colon
T-47D breast = test system: T-47D breast
TK-10 renal = test system: TK-10 renal
U251 CNS = test system: U251 CNS
UACC-257 melanoma = test system: UACC-257 melanoma
UACC-62 melanoma = test system: UACC-62 melanoma
UO-31 renal = test system: UO-31 renal

Measured: TGI

Cc1cc(C)c2cc(N)c(Cl)nc2n1
> 100 µM: all assays above
